Experimental data published in US4686308A, “Novel physiologically active substance MH435” (Microbial Chemistry Research Foundation, priority 1985, dated 1987).
≈ marks a conversion by molar mass, not a printed value.

Experiments:
Coryn. bovis 1810 = assay: Antimicrobial activity, agar dilution method; type: cell-based; conditions: Corynebacterium bovis, Muller-Hinton agar dilution
Description: (§1) Minimum inhibitory concentrations (MIC) of the substance against various bacteria determined by the agar dilution method using Muller-Hinton culture medium are shown in the following Table 4.

Pseu. aeruginosa A3 = assay: Antimicrobial activity, agar dilution method; type: cell-based; conditions: Pseudomonas aeruginosa, Muller-Hinton agar dilution
Description: as §1

K. pneumoniae PCI 602 = assay: Antimicrobial activity, agar dilution method; type: cell-based; conditions: Klebsiella pneumoniae, PCI602, Muller-Hinton agar dilution
Description: as §1

S. aureus MS8710 = assay: Antimicrobial activity, agar dilution method; type: cell-based; conditions: Staphylococcus aureus, Muller-Hinton agar dilution
Description: as §1

S. aureus MS9610 = assay: Antimicrobial activity, agar dilution method; type: cell-based; conditions: Staphylococcus aureus, Muller-Hinton agar dilution
Description: as §1

M. lysodelkticus IFO 333 = assay: Antimicrobial activity, agar dilution method; type: cell-based; conditions: Muller-Hinton agar dilution
Description: as §1

B. Subtilis PCI 219 = assay: Antimicrobial activity, agar dilution method; type: cell-based; conditions: Bacillus subtilis, Muller-Hinton agar dilution
Description: as §1

Prot. vulgaris OX19 = assay: Antimicrobial activity, agar dilution method; type: cell-based; conditions: Proteus vulgaris, Muller-Hinton agar dilution
Description: as §1

Serr. marcessens = assay: Antimicrobial activity, agar dilution method; type: cell-based; conditions: Muller-Hinton agar dilution
Description: as §1

Sal. typhi T-63 = assay: Antimicrobial activity, agar dilution method; type: cell-based; conditions: Salmonella enterica
Description: as §1

E. coli NIHJ = assay: Antimicrobial activity, agar dilution method; type: cell-based; conditions: Escherichia coli, Muller-Hinton agar dilution
Description: as §1

S. aureus 209 P = assay: Antimicrobial activity, agar dilution method; type: cell-based; conditions: Staphylococcus aureus, Muller-Hinton agar dilution
Description: as §1

B. cereus ATCC 10702 = assay: Antimicrobial activity, agar dilution method; type: cell-based; conditions: Bacillus cereus, ATCC10702, Muller-Hinton agar dilution
Description: as §1

S. aureus Smith = assay: Antimicrobial activity, agar dilution method; type: cell-based; conditions: Staphylococcus aureus, Muller-Hinton agar dilution
Description: as §1

[1] = test system: ts Src-NRK (at 39° C.) normal form; assay: Effects on cultured carcinoma cells: ts Src-NRK (at 39° C.) normal form; type: cell-based; conditions: 72 h, 3 days, cell count
[2] = target: T1, tyrosine specific protein kinase in the epidermal growth factor receptor (Homo sapiens, UniProt P00533); assay: Inhibitory activity against tyrosine specific protein kinase (epidermal growth factor receptor kinase), A-431 membrane fraction; type: biochemical; conditions: EGF, 0° C., 30 min, read-out: 50% inhibitory concentration (tyrosine specific protein kinase) (converted)
T1 construct: membrane fraction of human epithelial carcinoma cells A-431; endogenous in cells; host or cells: A-431 human epithelial carcinoma cells, membrane fraction
Procedure: In the above processes of incubation and purification, MH435 was traced by detecting the inhibition activity thereof by measuring the tyrosine specific protein kinase in test samples in accordance with the following method.
[Measurement of tyrosine specific protein kinase activity]
The measurement of tyrosin specific protein kinase activity was carried out by modifying the method of measuring enzyme activity described by G. Carpenter et al. in The Journal of Biological Chemistry, 254, 4874-4891 (1979) using the membrane fraction of human epithelial carcinoma cells A-431 with respect to the tyrosine specific protein kinase in the epidermal growth factor receptor. […] Then, ^32 P adsorbed on the filter paper was measured by counting the radioactivity (a). At the same time, count (b) was measured for the reaction product which was obtained by the same reaction and treated in the same manner as above except that the test sample was excluded, while counts (a') and (b') were measured for the reaction products in which the membrane fractions were further excluded, respectively. The inhibitory ratio with respect to the epidermal growth factor receptor kinase was then calculated from the equation

Acute toxicity (LD50) = conditions: mouse, in vivo, ip
A-431 cells = assay: Effects on cultured carcinoma cells: A-431; type: cell-based; conditions: Homo sapiens, 72 h, 3 days, 37° C., cell count
Procedure: (§2) IC50 was measured by inoculating the respective cells in dished (3-5×10^4 cells/dish), incubating the cells for 1 day (at 37° C.; CO2 concentration, 5%), then adding the substance MH435-A, further incubating the resultant mixture for 3 days under the same conditions and finally counting the number of the cells.

[3] = test system: ts Src-NRK (at 33° C.) carcinoma form; assay: Effects on cultured carcinoma cells: ts Src-NRK (at 33° C.) carcinoma form; type: cell-based; conditions: 72 h, 3 days, cell count
L1210 leukemia cells = assay: Effects on cultured carcinoma cells: L1210; type: cell-based; conditions: Mus musculus, 72 h, 3 days, 37° C., cell count
Procedure: as §2

Ki-NRK cells = assay: Effects on cultured carcinoma cells: Ki-NRK; type: cell-based; conditions: 72 h, 3 days, 37° C., cell count
Procedure: as §2

IMC carcinoma cells = assay: Effects on cultured carcinoma cells: IMC carcinoma; type: cell-based; conditions: 72 h, 3 days, 37° C., cell count
Procedure: as §2

T1 sequence (P00533 25-1210): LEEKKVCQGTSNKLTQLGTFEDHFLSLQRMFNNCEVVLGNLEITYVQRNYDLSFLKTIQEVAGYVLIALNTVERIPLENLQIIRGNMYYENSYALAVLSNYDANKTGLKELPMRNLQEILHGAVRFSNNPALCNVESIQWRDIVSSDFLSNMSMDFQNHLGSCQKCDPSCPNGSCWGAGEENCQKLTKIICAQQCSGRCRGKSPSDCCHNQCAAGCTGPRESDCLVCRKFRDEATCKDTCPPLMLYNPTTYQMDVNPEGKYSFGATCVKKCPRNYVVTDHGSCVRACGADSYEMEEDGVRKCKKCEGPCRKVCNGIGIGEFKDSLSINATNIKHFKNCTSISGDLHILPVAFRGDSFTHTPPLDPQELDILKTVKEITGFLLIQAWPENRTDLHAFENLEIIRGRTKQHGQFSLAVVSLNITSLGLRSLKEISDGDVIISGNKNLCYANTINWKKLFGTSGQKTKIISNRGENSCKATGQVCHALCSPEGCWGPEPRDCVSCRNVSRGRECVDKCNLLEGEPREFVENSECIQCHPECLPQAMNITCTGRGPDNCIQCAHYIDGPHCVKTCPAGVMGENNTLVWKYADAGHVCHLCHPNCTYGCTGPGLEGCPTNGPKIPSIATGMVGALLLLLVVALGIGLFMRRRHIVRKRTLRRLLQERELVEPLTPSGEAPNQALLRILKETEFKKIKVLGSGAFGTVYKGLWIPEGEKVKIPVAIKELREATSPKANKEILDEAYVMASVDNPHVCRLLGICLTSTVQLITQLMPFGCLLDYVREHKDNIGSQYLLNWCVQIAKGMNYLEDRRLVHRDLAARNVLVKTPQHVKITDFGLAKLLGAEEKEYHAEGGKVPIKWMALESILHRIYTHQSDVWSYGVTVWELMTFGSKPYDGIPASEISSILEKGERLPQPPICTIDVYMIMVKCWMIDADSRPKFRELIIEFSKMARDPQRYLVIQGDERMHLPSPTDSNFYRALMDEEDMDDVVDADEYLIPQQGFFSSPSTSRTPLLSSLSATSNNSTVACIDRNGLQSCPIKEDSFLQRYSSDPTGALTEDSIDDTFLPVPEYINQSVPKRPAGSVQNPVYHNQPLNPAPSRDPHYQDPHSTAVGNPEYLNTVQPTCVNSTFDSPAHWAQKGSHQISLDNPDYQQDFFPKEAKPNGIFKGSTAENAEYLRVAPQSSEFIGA

| SMILES | MIC (Coryn. bovis 1810) [µg/mL] | MIC (Pseu. aeruginosa A3) [µg/mL] | MIC (K. pneumoniae PCI 602) [µg/mL] | MIC (S. aureus MS8710) [µg/mL] | MIC (S. aureus MS9610) [µg/mL] | MIC (M. lysodelkticus IFO 333) [µg/mL] | MIC (B. Subtilis PCI 219) [µg/mL] | MIC (Prot. vulgaris OX19) [µg/mL] | MIC (Serr. marcessens) [µg/mL] | MIC (Sal. typhi T-63) [µg/mL] | MIC (E. coli NIHJ) [µg/mL] | MIC (S. aureus 209 P) [µg/mL] | MIC (B. cereus ATCC 10702) [µg/mL] | MIC (S. aureus Smith) [µg/mL] | IC50 [2] [µM] | further results |
| --- | --- | --- | --- | --- | --- | --- | --- | --- | --- | --- | --- | --- | --- | --- | --- | --- |
| O=CNC=Cc1cc(O)ccc1O [MH435-A] | 100 (≈ 558 µM) | 25 (≈ 140 µM) | 100 (≈ 558 µM) | 50 (≈ 279 µM) | 50 (≈ 279 µM) | 50 (≈ 279 µM) | 100 (≈ 558 µM) | 100 (≈ 558 µM) | 100 (≈ 558 µM) | 100 (≈ 558 µM) | 100 (≈ 558 µM) | 50 (≈ 279 µM) | 100 (≈ 558 µM) | 25 (≈ 140 µM) | 3.07 | IC50 [1]: 3.6 µg/mL (≈ 20.1 µM); LD50 (Acute toxicity (LD50)): ≥ 200 mg/kg; IC50 (A-431 cells): 3.6 µg/mL (≈ 20.1 µM); IC50 [3]: 2 µg/mL (≈ 11.2 µM); IC50 (L1210 leukemia cells): 2.41 µg/mL (≈ 13.5 µM); IC50 (Ki-NRK cells): 1.7 µg/mL (≈ 9.49 µM); IC50 (IMC carcinoma cells): 3.01 µg/mL (≈ 16.8 µM) |
| O=CNCCc1cc(O)ccc1O [MH435-B] | 100 (≈ 552 µM) | 50 (≈ 276 µM) | 100 (≈ 552 µM) | 50 (≈ 276 µM) | 50 (≈ 276 µM) | 50 (≈ 276 µM) | 100 (≈ 552 µM) | 50 (≈ 276 µM) | 100 (≈ 552 µM) | 100 (≈ 552 µM) | 100 (≈ 552 µM) | 50 (≈ 276 µM) | 100 (≈ 552 µM) | 50 (≈ 276 µM) | 33.1 |  |
